The values that follow come from patent US8778926B2, “Compounds, pharmaceutical compositions and uses thereof” (Boehringer Ingelheim International GmbH, priority 2011, dated 2014).

Molecules are shown by their SMILES.

The target of this assay is T1, human GPR119 (Homo sapiens, UniProt Q8TDV5).
T1 construct: expression vector for human GPR119 cDNA (Acc. No. NP_848566); expressed in transfected cells
T1 sequence (Q8TDV5 1-335): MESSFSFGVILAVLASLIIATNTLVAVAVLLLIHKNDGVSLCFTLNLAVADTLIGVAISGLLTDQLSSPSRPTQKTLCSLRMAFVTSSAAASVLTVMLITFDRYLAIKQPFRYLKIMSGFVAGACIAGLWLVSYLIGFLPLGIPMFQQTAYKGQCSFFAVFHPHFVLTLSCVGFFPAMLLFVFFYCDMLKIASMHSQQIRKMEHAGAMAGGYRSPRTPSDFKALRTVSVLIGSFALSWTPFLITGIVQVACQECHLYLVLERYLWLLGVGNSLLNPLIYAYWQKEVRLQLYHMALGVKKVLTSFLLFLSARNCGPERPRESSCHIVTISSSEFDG
The experiment in a line: AlphaScreen cAMP assay, activation of GPR119 in Min-6/hGPR119 cells. The class given is cell-based. As to conditions: MIN6 cells stably transfected with human GPR119; intracellular cAMP; 45 minutes incubation at room temperature. As for the experimental part: The compounds of formula I according to the invention modulate the activity of the G-protein-coupled receptor GPR119. The effect of the compounds on the activation of GPR119 and on the stimulation of intracellular cAMP concentration is determined using the AlphaScreen cAMP Assay Kit (Cat. No. #6760625R) made by PerkinElmer.
MIN6 cells [Miyazaki J et al. Endocrinology. 1990 July; 127(1):126-32] are stably transfected with an expression vector for human GPR119 cDNA (Acc. No. NP_848566). Min-6/hGPR119 cells are cultured in DMEM, 10% FBS, 500 μM β-mercaptoethanol, 0.3 mg/mL Geniticin, 2 mM GlutaMAX at 37° C. 5% CO2. For the assay, the cells are seeded in Optiplates (white, 384-well, 160 W— barcoded, TC, sterile with lid, Cat. No. #6007688 (Perkin Elmer); 10000 cells/well; 50 μl). The plates covered with lids are then incubated for 24 hours at 37° C./5% CO2. After the medium is aspirated from the wells completely, 10 μl of the test compound are added, the compounds are diluted using stimulating buffer (140 mM NaCl, 3.6 mM KCl, 0.5 mM NaH2PO4, 0.5 mM MgSO4, 1.5 mM CaCl2, 10 mM Hepes, 5 mM NaHCO3; pH 7.4. 0.5 mM IBMX and 0.1% BSA, the final DMSO concentration is 1%). After 45 minutes incubation at room temperature (approx. 20° C.), the cAMP concentrations are determined using the AlphaScreen cAMP Assay Kit (Cat. No. #6760625R from PerkinElmer).
Take `CC(C)c1noc(N2CCC([C@]3(C)Cc4cc(-c5ccc(S(C)(=O)=O)cc5)ncc4O3)CC2)n1` (single isomer, unassigned) [Example 26]: a half-maximal effect (EC50) was put at 9 nM. That is a single-digit nanomolar value.
Compound `CCCc1noc(N2CCC([C@]3(C)Cc4cc(-c5ccc(S(C)(=O)=O)cc5)ncc4O3)CC2)n1` (single isomer, unassigned) [Example 27] had an EC50 of 15 nM.
As to `CCc1cnc(N2CCC([C@]3(C)Cc4cc(-c5ccc(S(C)(=O)=O)cc5)ncc4O3)CC2)nc1` (single isomer, unassigned) [Example 28], a half-maximal effect (EC50) was put at 22 nM.
Next, `CC(C)(C)c1noc(N2CCC([C@]3(C)Cc4cc(-c5ccc(S(C)(=O)=O)cc5)ncc4O3)CC2)n1` (single isomer, unassigned) [Example 29]: 51 nM; `CCc1cnc(N2CCC([C@@H]3Cc4cc(C5=CCN(S(C)(=O)=O)CC5)ncc4O3)CC2)nc1` (single isomer, unassigned) [Example 30]: 4 nM.
`CCc1cnc(N2CCC([C@H]3Cc4cc(C5=CCN(S(C)(=O)=O)CC5)ncc4O3)CC2)nc1` (single isomer, unassigned) [Example 31] came in with an EC50 of 3 nM.
`Cc1cnc(N2CCC([C@@H]3Cc4cc(C5=CCN(S(C)(=O)=O)CC5)ncc4O3)CC2)nc1` (single isomer, unassigned) [Example 32] displayed an EC50 of 29 nM. Against the preceding compound, the EC50 is about 9.7-fold higher.
For `Cc1cnc(N2CCC([C@H]3Cc4cc(C5=CCN(S(C)(=O)=O)CC5)ncc4O3)CC2)nc1` (single isomer, unassigned) [Example 33], the concentration giving a half-maximal response (EC50) was determined as 6 nM.
The compound `C[C@@]1(C2CCN(c3ncc(C(F)(F)F)cn3)CC2)Cc2cc(C3=CCN(S(C)(=O)=O)CC3)ncc2O1` (single isomer, unassigned) [Example 35] yielded an EC50 of 3 nM. Compared with the last compound, the EC50 is about 2-fold lower.
`CCc1cnc(N2CCC([C@]3(C)Cc4cc(C5=CCN(S(C)(=O)=O)CC5)ncc4O3)CC2)nc1` (single isomer, unassigned) [Example 36] displayed a 50% effective concentration (EC50) of 5 nM. This EC50 lies about 1.7-fold higher than the previous one.
As to `C[C@@]1(C2CCN(c3ccc(C(F)(F)F)cn3)CC2)Cc2cc(C3=CCN(S(C)(=O)=O)CC3)ncc2O1` (single isomer, unassigned) [Example 37], the EC50 worked out at 6 nM. The EC50 values of the last two compounds are within 1.5-fold of each other.
For `C[C@@]1(C2CCN(c3cnc(C(F)(F)F)cn3)CC2)Cc2cc(C3=CCN(S(C)(=O)=O)CC3)ncc2O1` (single isomer, unassigned) [Example 38], the EC50 came to 14 nM.
The result for `C[C@@]1(C2CCN(c3ncc(C(F)(F)F)cc3F)CC2)Cc2cc(C3=CCN(S(C)(=O)=O)CC3)ncc2O1` (single isomer, unassigned) [Example 40] reads 2 nM; that for `Cc1cnc(N2CCC([C@]3(C)Cc4cc(C5=CCN(S(C)(=O)=O)CC5)ncc4O3)CC2)nc1` (single isomer, unassigned) [Example 41], 6 nM; that for `CC(C)c1noc(N2CCC([C@]3(C)Cc4cc(C5=CCN(S(C)(=O)=O)CC5)ncc4O3)CC2)n1` (single isomer, unassigned) [Example 42], 11 nM.
Compound `CC(C)c1nc(N2CCC([C@]3(C)Cc4cc(C5=CCN(S(C)(=O)=O)CC5)ncc4O3)CC2)no1` (single isomer, unassigned) [Example 43] yielded a 50% effective concentration (EC50) of 9 nM. The EC50 values of the last two compounds are within 1.5-fold of each other.
`CCCc1nc(N2CCC(C3Cc4cc(C5=CCN(S(C)(=O)=O)CC5)ncc4O3)CC2)no1` (single isomer, unassigned) [Example 44] yielded an EC50 of 6 nM. This EC50 is about 1.5-fold lower than that of the compound before.
On to `CC(C)c1nc(N2CCC([C@H]3Cc4cc(C5=CCN(S(C)(=O)=O)CC5)ncc4O3)CC2)no1` (single isomer, unassigned) [Example 45], for which the EC50 came out at 13 nM. Against the preceding compound, the EC50 is about 2.2-fold higher.
The compound `CC(C)c1nc(N2CCC([C@@H]3Cc4cc(C5=CCN(S(C)(=O)=O)CC5)ncc4O3)CC2)no1` (single isomer, unassigned) [Example 46] displayed a half-maximal effective concentration (EC50) of 18 nM.
As to `CCCc1nc(N2CCC([C@]3(C)Cc4cc(C5=CCN(S(C)(=O)=O)CC5)ncc4O3)CC2)no1` (single isomer, unassigned) [Example 47], the EC50 turned out to be 6 nM.
